What was measured:
p38 MAPK [1] = settings: baculovirus-expressed ERα, FIG. 3A
p38 MAPK [2] = assay: In vitro phosphorylation of Xenopus oocyte-expressed AIB1 by p38 MAPK; assay type: biochemical; settings: Xenopus oocyte-expressed AIB1, FIG. 4 lane 4
p38β = p38β (Homo sapiens, UniProt Q15759); assay: In vitro kinase assay of Example 3: p38β-induced phosphorylation of ER; assay type: biochemical; settings: ERα and ERβ substrates
[3] = test system: ER-positive MCF-7 human breast cancer cells; assay: MCF-7 human breast cancer xenografts in athymic nude mice, tumor volume; assay type: in vivo; settings: wild type MCF-7 xenografts, treatment from day 17, FIG. 2A; growth eventually resumes (Tam^R)
From the text: The present inventors have developed an in vivo experimental model of tamoxifen resistance and resistance to estrogen deprivation in which ER-positive MCF-7 human breast cancer cells are inoculated subcutaneously into athymic nude mice [Osborne et al., 1987, Eur J Cancer Clin Oncol. 23(8):1189-1196; Osborne et al., 1991, J Natl Cancer Inst. 83(20):1477-1482]. […] This sequence of events is similar to that which occurs in patients. […] Since certain metabolites of tamoxifen have estrogenic properties, pharmacologic explanations for this tamoxifen-stimulated growth were investigated first.
ER-positive MCF-7 human breast cancer cells were grown as xenografts in athymic nude mice as described previously [Osborne et al., 1987, Eur J Cancer Clin Oncol. 23(8):1189-1196; Osborne et al., 1991, J Natl Cancer Inst. 83(20):1477-1482; Osborne et al., 1995, J Natl Cancer Inst 87:746-750]. Day 0 was the day of transplantation conducted and the day estrogen treatment began. These mice were treated with estrogen withdrawal (−E2) or tamoxifen (Tam) beginning on day 17. Tumor volume was measure every four days.

[4] = test system: ER-positive MCF-7 human breast cancer cells; settings: literature (Osborne et al., 1995), cited from earlier work

p38β, sequence (Q15759 whole entry): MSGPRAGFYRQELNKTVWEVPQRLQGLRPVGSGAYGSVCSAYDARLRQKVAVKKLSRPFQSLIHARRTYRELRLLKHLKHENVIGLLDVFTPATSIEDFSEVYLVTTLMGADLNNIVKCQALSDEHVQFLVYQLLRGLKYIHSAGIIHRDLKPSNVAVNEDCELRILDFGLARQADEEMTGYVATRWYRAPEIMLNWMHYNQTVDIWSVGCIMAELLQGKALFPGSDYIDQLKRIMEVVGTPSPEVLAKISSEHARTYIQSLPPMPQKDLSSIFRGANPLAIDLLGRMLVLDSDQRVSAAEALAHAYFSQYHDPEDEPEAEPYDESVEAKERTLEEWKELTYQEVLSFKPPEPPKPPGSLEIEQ

For `C[S+]([O-])c1ccc(-c2nc(-c3ccncc3)c(-c3ccc(F)cc3)[nH]2)cc1` (stereo not drawn) [SB 203580], which “phosphorylation of ERα by p38 MAP kinase in the presence of inhibitor” value (p38 MAPK [1]) is on record?
Its value is “inhibited”.

What about the “AIB1 phosphorylation by p38 MAPK” value (p38 MAPK [2]) of the same compound?
Its value is “inhibits AIBI phosphorylation”.

What about the “p38β-induced phosphorylation of ER” value (p38β) of the same compound?
Its value is “can be inhibited”.

Which results are given for `CC/C(=C(\c1ccccc1)c1ccc(OCCN(C)C)cc1)c1ccccc1` [tamoxifen]?
xenografted tumor growth (tumor volume over time) [3]: suppresses tumor growth for several months; tumor growth in MCF-7 xenograft model ([4]; tumor growth later resumes despite continued treatment): suppresses tumor growth for several months

With `C[C@]12CC[C@@H]3c4ccc(O)cc4C[C@@H](CCCCCCCCC[S+]([O-])CCCC(F)(F)C(F)(F)F)[C@H]3[C@@H]1CC[C@@H]2O` (stereo partly drawn) [ICI 182,780] as the compound, how does the “growth of −E2^R and Tam^R resistant tumors” value ([4]; resistant xenograft tumors) read?
The value was “can still be inhibited”.

Reference: patent US7402402B2, “P38 MAPK pathway predicts endocrine-resistant growth of human breast cancer and provides a novel diagnostic and treatment target” (Baylor College of Medicine, priority 2001, dated 2008)
